# Data reported in ChEMBL document CHEMBL3872224, “Synthesis and cytotoxicity of novel artemisinin derivatives containing sulfur atoms” (Eur J Med Chem, 2016).
# Assays:
# [1] = Cytotoxicity against human SGC7901 cells measured after 72 hrs by MTT assay; assay type: functional, cell-based; conditions: SGC-7901, 72 h
# [2] = Cytotoxicity against human A549 cells measured after 72 hrs by MTT assay; assay type: functional, cell-based; conditions: A549, 72 h
# [3] = Cytotoxicity against human PC3 cells measured after 72 hrs by MTT assay; assay type: functional, cell-based; conditions: PC-3, 72 h
# [4] = Cytotoxicity against human MDA-MB-435S cells measured after 72 hrs by MTT assay; assay type: functional, cell-based
# A549 = assay: Selectivity index, ratio of IC50 for human L02 cells to IC50 for human A549 cells; assay type: functional
# SGC-7901 = assay: Selectivity index, ratio of IC50 for human L02 cells to IC50 for human SGC7901 cells; assay type: functional
# [5] = Cytotoxicity against human L02 measured after 72 hrs by MTT assay; assay type: toxicity; conditions: L02 cells
SMILES,IC50 [1],IC50 [2],IC50 [3],IC50 [4],Ratio IC50 (A549),Ratio IC50 (SGC-7901),IC50 at 72 h [5]
CCCCSc1cccc(C(=O)O[C@@H]2O[C@@H]3O[C@]4(C)CC[C@H]5[C@H](C)[C@H](O)C[C@@H]([C@H]2C)[C@@]35OO4)c1,173 µM,96.1 µM,464 µM,–,–,–,–
COc1ccc(Sc2cccc(C(=O)O[C@@H]3O[C@@H]4O[C@]5(C)CC[C@H]6[C@H](C)[C@H](OC(=O)c7cccc(Sc8ccc(OC)cc8)c7)C[C@@H]([C@H]3C)[C@@]46OO5)c2)cc1,6 µM,4.3 µM,30.5 µM,108 µM,16.1,11.5,69.2 µM
C[C@@H]1[C@H](OC(=O)c2cccc(SCc3ccccc3)c2)C[C@H]2[C@@H](C)[C@H](OC(=O)c3cccc(SCc4ccccc4)c3)O[C@@H]3O[C@]4(C)CC[C@@H]1[C@]32OO4,–,223 µM,–,289 µM,–,–,–
COc1ccc(Sc2cccc(C(=O)O[C@@H]3O[C@@H]4O[C@]5(C)CC[C@H]6[C@H](C)[C@H](O)C[C@@H]([C@H]3C)[C@@]46OO5)c2)cc1,7.1 µM,1.6 µM,13 µM,124 µM,50.1,11.3,80.2 µM
C[C@@H]1[C@H](O)C[C@H]2[C@@H](C)[C@H](OC(=O)c3cccc(SC4CCCCC4)c3)O[C@@H]3O[C@]4(C)CC[C@@H]1[C@]32OO4,553 µM,33.3 µM,204 µM,29.6 µM,–,–,–
CCSc1cccc(C(=O)O[C@@H]2O[C@@H]3O[C@]4(C)CC[C@H]5[C@H](C)[C@H](O)C[C@@H]([C@H]2C)[C@@]35OO4)c1,–,1440 µM,–,120 µM,–,–,–
CCSc1cccc(C(=O)O[C@@H]2O[C@@H]3O[C@]4(C)CC[C@H]5[C@H](C)[C@H](OC(=O)c6cccc(SCC)c6)C[C@@H]([C@H]2C)[C@@]35OO4)c1,74.2 µM,44.4 µM,30 µM,112 µM,–,–,–
C[C@@H]1[C@H](O)C[C@H]2[C@@H](C)C(=O)O[C@@H]3O[C@]4(C)CC[C@@H]1[C@]32OO4,–,80.4 µM,–,21.9 µM,1.8,–,146 µM
C[C@@H]1[C@H](O)C[C@H]2[C@@H](C)[C@H](OC(=O)c3cccc(SCc4ccccc4)c3)O[C@@H]3O[C@]4(C)CC[C@@H]1[C@]32OO4,–,95 µM,146 µM,223 µM,–,–,–
CCCCSc1cccc(C(=O)O[C@@H]2O[C@@H]3O[C@]4(C)CC[C@H]5[C@H](C)[C@H](OC(=O)c6cccc(SCCCC)c6)C[C@@H]([C@H]2C)[C@@]35OO4)c1,85 µM,107 µM,115 µM,–,–,–,–
O=c1[nH]cc(F)c(=O)[nH]1 [FLUOROURACIL],–,6.8 µM,–,15.2 µM,3.8,2.2,25.9 µM
